Experimental data from PubChem BioAssay AID874 (The Scripps Research Institute Molecular Screening Center, 2007).
Activity calls are given as the source filed them. No rule for the calls is given here.

tested on: CRE-BLA reporter cells, beta-lactamase FRET, counterscreen; test: activators of CRE-BLA reporter, SAR follow-up, counter-screen for S1P2 agonist project, cell-based, purchased analogues, beta-lactamase FRET (AID 874)

Row | Compound | EC50
1 | Cc1cc(C(=O)CN2C(=O)NC(Cc3ccccc3)C2=O)c(C)n1Cc1cccs1 (centres undefined) | > 44 µM (inactive)
2 | Cc1cc(C(=O)COC(=O)CCS(=O)(=O)c2ccccc2)c(C)n1Cc1ccccc1 | > 44 µM (inactive)
3 | COc1ccc(C(N)=O)c(OCC(=O)c2cc(C)n(Cc3ccccc3)c2C)c1 | > 44 µM (inactive)
4 | Cc1cc(C(=O)Cn2cc(C(F)(F)F)ccc2=O)c(C)n1Cc1ccccc1 | > 44 µM (inactive)
5 | Cc1cc(C(=O)CN(C)CC(=O)NC(C)(C)C)c(C)n1Cc1ccccc1 | > 44 µM (inactive)
6 | Cc1cc(C(=O)CN2C(=O)CCC2=O)c(C)n1Cc1ccc2c(c1)OCO2 | > 44 µM (inactive)
7 | Cc1cc(C(=O)COC(=O)Cn2c(=O)oc3ccccc32)c(C)n1Cc1ccccc1 | > 44 µM (inactive)
8 | Cc1cc(C(=O)Cn2cnc3c(oc4ccccc43)c2=O)c(C)n1Cc1ccccc1 | > 44 µM (inactive)
9 | Cc1cc(C(=O)COC(=O)Cn2cnc3ccccc3c2=O)c(C)n1Cc1ccccc1 | > 44 µM (inactive)
10 | CCOC(=O)c1cc(C)n(Cc2ccccc2)c1C | > 44 µM (inactive)
11 | Cc1cc(C(=O)CSc2nnnn2C)c(C)n1Cc1ccccc1 | > 44 µM (inactive)
12 | Cc1nc(C)c(C(=O)OCC(=O)c2cc(C)n(Cc3ccccc3)c2C)s1 | > 44 µM (inactive)
13 | Cc1cc(C(=O)CN(C)Cc2ccco2)c(C)n1Cc1ccccc1 | > 44 µM (inactive)
14 | Cc1cc(C)nc(SCC(=O)OCC(=O)c2cc(C)n(Cc3ccccc3)c2C)n1 | > 44 µM (inactive)
15 | Cc1cc(C(=O)CSc2nnnn2C2CC2)c(C)n1Cc1ccccc1 | > 44 µM (inactive)
16 | Cc1cc(C(=O)CN(C)CC(=O)N(C)C)c(C)n1Cc1ccccc1 | > 44 µM (inactive)
17 | Cc1cc(C(=O)COC(=O)CN2C(=O)C3CCCCC3C2=O)c(C)n1Cc1ccccc1 (centres undefined) | > 44 µM (inactive)
18 | Cc1sc2ncn(CC(=O)c3cc(C)n(Cc4ccccc4)c3C)c(=O)c2c1C | > 44 µM (inactive)
19 | Cc1cc(C(=O)CN2C(=O)NC3(CCOc4ccccc43)C2=O)c(C)n1Cc1ccccc1 (centres undefined) | > 44 µM (inactive)
20 | Cc1cc(C(=O)COC(=O)C2CSC3(C)CCC(=O)N23)c(C)n1Cc1ccccc1 (centres undefined) | > 44 µM (inactive)

Row | Compound | EC50
21 | CCCNC(=O)CN(C)CC(=O)c1cc(C)n(Cc2ccccc2)c1C | > 44 µM (inactive)
22 | CCNC(=O)CN(CC)CC(=O)c1cc(C)n(Cc2ccccc2)c1C | > 44 µM (inactive)
23 | Cc1cc(C(=O)CN(C)CC(=O)NC2CC2)c(C)n1Cc1ccccc1 | > 44 µM (inactive)
24 | CC(=O)Nc1ccc(OCC(=O)c2cc(C)n(Cc3ccccc3)c2C)cc1 | > 44 µM (inactive)
25 | COCCNC(=O)CN(C)CC(=O)c1cc(C)n(Cc2ccccc2)c1C | > 44 µM (inactive)
26 | Cc1cc(C(=O)CN2C(=O)C(=O)N(Cc3ccco3)C2=O)c(C)n1Cc1ccccc1 | > 44 µM (inactive)
27 | Cc1cc(C(=O)CN(C)CC(=O)N2CCCC2)c(C)n1Cc1ccccc1 | > 44 µM (inactive)
28 | Cc1cc(C(=O)O)c(C)n1Cc1ccccc1 | > 44 µM (inactive)
29 | Cc1cc(C(=O)CN2C(=O)C(=O)N(Cc3ccccc3)C2=O)c(C)n1Cc1ccccc1 | > 44 µM (inactive)
30 | Cc1cc(C(=O)CN(C)CC(=O)NC(C)C)c(C)n1Cc1ccccc1 | > 44 µM (inactive)
31 | Cc1cc(C(=O)COC(=O)C2CCC2)c(C)n1Cc1ccccc1 | > 44 µM (inactive)
32 | Cc1cc(C(=O)CN2C(=O)NC(Cc3ccccc3)C2=O)c(C)n1Cc1ccccc1 (centres undefined) | > 44 µM (inactive)
33 | Cc1cc(C(=O)COc2ccc(C(N)=O)cc2)c(C)n1Cc1ccccc1 | > 44 µM (inactive)
34 | COc1ccc(NC(=O)CN(C)CC(=O)c2cc(C)n(Cc3ccccc3)c2C)cc1 | > 44 µM (inactive)
35 | Cc1noc(C)c1C(=O)OCC(=O)c1cc(C)n(Cc2ccccc2)c1C | > 44 µM (inactive)
36 | Cc1cc(C(=O)COC(=O)CN2C(=O)NC(C)(C)C2=O)c(C)n1Cc1ccccc1 | > 44 µM (inactive)
37 | Cc1cc(C(=O)CSc2ncccn2)c(C)n1Cc1ccccc1 | > 44 µM (inactive)
38 | Cc1cc(C(=O)CN2C(=O)C(=O)N(C3CCCC3)C2=O)c(C)n1Cc1ccccc1 | > 44 µM (inactive)
39 | Cc1cc(C(=O)CN(C)CC(=O)N2CCOCC2)c(C)n1Cc1ccccc1 | > 44 µM (inactive)
40 | CNC(=O)c1ccc(CN(C)CC(=O)c2cc(C)n(Cc3ccccc3)c2C)cc1 | > 44 µM (inactive)

Row | Compound | EC50
41 | CCC1(CC)NC(=O)N(CC(=O)OCC(=O)c2cc(C)n(Cc3ccccc3)c2C)C1=O | > 44 µM (inactive)
42 | CC(=O)c1cccc(OCC(=O)c2cc(C)n(Cc3ccccc3)c2C)c1 | > 44 µM (inactive)
43 | Cc1ccc(C(=O)OCC(=O)c2cc(C)n(Cc3ccccc3)c2C)o1 | > 44 µM (inactive)
44 | Cc1nn(CC(=O)c2cc(C)n(Cc3ccccc3)c2C)c(C)c1[N+](=O)[O-] | > 44 µM (inactive)
45 | CC(=O)Nc1ccc(SCC(=O)c2cc(C)n(Cc3ccccc3)c2C)cc1 | > 44 µM (inactive)
46 | COc1cccc(C2(C)NC(=O)N(CC(=O)c3cc(C)n(Cc4ccccc4)c3C)C2=O)c1 (centres undefined) | > 44 µM (inactive)
47 | Cc1cc(C(=O)CN2C(=O)C(=O)N(Cc3ccccc3)C2=O)c(C)n1Cc1ccc(F)cc1 | > 44 µM (inactive)
48 | Cc1cc(C(=O)CSc2nnnn2C(C)(C)C)c(C)n1Cc1ccccc1 | > 44 µM (inactive)
49 | Cc1cc(C(=O)CN2CCN(C(=O)c3ccco3)CC2)c(C)n1Cc1ccccc1 | > 44 µM (inactive)
50 | Cc1cc(C(=O)CN2C(=O)C(=O)N(C)C2=O)c(C)n1Cc1ccccc1 | > 44 µM (inactive)
51 | Cc1cc(C(=O)CN2C(=O)NC3(CCc4ccccc43)C2=O)c(C)n1Cc1ccccc1 (centres undefined) | > 44 µM (inactive)
52 | Cc1cc(C(=O)CN2C(=O)CCC2=O)c(C)n1Cc1ccccc1 | > 44 µM (inactive)
53 | Cc1cc(C(=O)Cn2cnc3c2c(=O)n(C)c(=O)n3C)c(C)n1Cc1ccccc1 | > 44 µM (inactive)
54 | Cc1cc(C(=O)CN2C(=O)C(=O)N(Cc3ccccc3)C2=O)c(C)n1Cc1ccco1 | > 44 µM (inactive)
55 | Cc1cc(C(=O)CSc2nnc(C3CC3)n2C)c(C)n1Cc1ccccc1 | > 44 µM (inactive)
56 | Cc1cc(C(=O)COC(=O)C(O)c2ccccc2)c(C)n1Cc1ccccc1 (centres undefined) | > 44 µM (inactive)
57 | Cc1cc(C(=O)COC(=O)c2ccco2)c(C)n1Cc1ccccc1 | > 44 µM (inactive)
58 | CC(=O)c1ccc(OCC(=O)c2cc(C)n(Cc3ccccc3)c2C)cc1 | > 44 µM (inactive)
59 | Cc1cc(C(=O)CSc2ncn[nH]2)c(C)n1Cc1ccccc1 | > 44 µM (inactive)
